Measurements as given in PubChem BioAssay (NCI).
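Method: 48-hour compound exposure of cells in 96-well plates, five concentrations, linear interpolation of endpoints. GI50: concentration for 50% inhibition of growth. TGI: concentration producing complete growth inhibition.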

How the values were obtained:
Test in all cases: inhibition of tumour cell growth, NCI panel, 48 h
[1] = tested on: SK-MEL-2 melanoma
[2] = tested on: SN12C renal
[3] = tested on: SNB-19 CNS
[4] = tested on: HOP-62 NSCLC
[5] = tested on: MCF7 breast
[6] = tested on: UO-31 renal
[7] = tested on: HS 578T breast
[8] = tested on: BT-549 breast
[9] = tested on: KM12 colon
[10] = tested on: UACC-62 melanoma
[11] = tested on: HCT-15 colon
[12] = tested on: SF-539 CNS
[13] = tested on: SNB-75 CNS
[14] = tested on: CCRF-CEM leukemia
[15] = tested on: DU-145 prostate
[16] = tested on: MDA-MB-231 breast
[17] = tested on: SF-295 CNS
[18] = tested on: RPMI-8226 leukemia
[19] = tested on: SK-MEL-5 melanoma
[20] = tested on: IGROV1 ovarian
[21] = tested on: MOLT-4 leukemia
[22] = tested on: OVCAR-4 ovarian
[23] = tested on: U251 CNS
[24] = tested on: COLO 205 colon
[25] = tested on: EKVX NSCLC
[26] = tested on: SR leukemia
[27] = tested on: NCI/ADR-RES ovarian
[28] = tested on: ACHN renal
[29] = tested on: NCI-H460 lung
[30] = tested on: T-47D breast
[31] = tested on: OVCAR-8 ovarian
[32] = tested on: M14 melanoma
[33] = tested on: OVCAR-5 ovarian
[34] = tested on: LOX IMVI melanoma
[35] = tested on: MALME-3M melanoma
[36] = tested on: A498 renal
[37] = tested on: 786-0 renal
[38] = tested on: NCI-H226 lung
[39] = tested on: SK-MEL-28 melanoma
[40] = tested on: OVCAR-3 ovarian
[41] = tested on: HCT-116 colon
[42] = tested on: NCI-H522 lung
[43] = tested on: SK-OV-3 ovarian
[44] = tested on: A549 NSCLC
[45] = tested on: TK-10 renal
[46] = tested on: HCC-2998 colon
[47] = tested on: NCI-H23 lung
[48] = tested on: SW-620 colon
[49] = tested on: RXF 393 renal
[50] = tested on: SF-268 CNS
[51] = tested on: K-562 leukemia
[52] = tested on: PC-3 prostate
[53] = tested on: CAKI-1 renal
[54] = tested on: UACC-257 melanoma
[55] = tested on: MDA-MB-435
[56] = tested on: HT29 colon
[57] = tested on: HOP-92 NSCLC

## O=C1NC(=C(Cl)Cl)/C(=N/S(=O)(=O)N2CCCCC2CC2(C(F)(F)F)N=N2)N1 (centres undefined)
[1]
  GI50: 1860 nM
  TGI: 3.9 µM
[2]
  GI50: 1290 nM
  TGI: 2570 nM
[3]
  GI50: 2000 nM
  TGI: 4.53 µM
[4]
  GI50: 3.22 µM
  TGI: 13.5 µM
[5]
  GI50: 769 nM
  TGI: 11.8 µM
[6]
  GI50: 2690 nM
  TGI: 12.4 µM
[7]
  GI50: 2830 nM
  TGI: 9.84 µM
[8]
  GI50: 1890 nM
  TGI: 3.67 µM
[9]
  GI50: 3.14 µM
  TGI: 12.2 µM
[10]
  GI50: 1740 nM
  TGI: 3.57 µM
[11]
  GI50: 398 nM
  TGI: 1500 nM
[12]
  GI50: 1790 nM
  TGI: 3.56 µM
[13]
  GI50: 3.5 µM
  TGI: 17.4 µM
[14]
  GI50: 1990 nM
  TGI: 5.57 µM
[15]
  GI50: 3.47 µM
  TGI: 11.8 µM
[16]
  GI50: 1730 nM
  TGI: 3.44 µM
[17]
  GI50: 3.23 µM
  TGI: 12.1 µM
[18]
  GI50: 385 nM
  TGI: 8.08 µM
[19]
  GI50: 2400 nM
  TGI: 5.93 µM
[20]
  GI50: 1580 nM
  TGI: 3.09 µM
[21]
  GI50: 1680 nM
  TGI: 4.43 µM
[22]
  GI50: 1760 nM
  TGI: 3.2 µM
[23]
  GI50: 1860 nM
  TGI: 3.67 µM
[24]
  GI50: 1890 nM
  TGI: 3.68 µM
[25]
  GI50: 2040 nM
  TGI: 4.33 µM
[26]
  GI50: 431 nM
  TGI: 2670 nM
[27]
  GI50: 3.45 µM
  TGI: 15.4 µM
[28]
  GI50: 1740 nM
  TGI: 3.12 µM
[29]
  GI50: 3.06 µM
  TGI: 10.7 µM
[30]
  GI50: 4.16 µM
  TGI: 22.1 µM
[31]
  GI50: 2210 nM
  TGI: 5.17 µM
[32]
  GI50: 1850 nM
  TGI: 3.93 µM
[33]
  GI50: 1900 nM
  TGI: 3.84 µM
[34]
  GI50: 430 nM
  TGI: 1580 nM
[35]
  GI50: 1570 nM
  TGI: 2990 nM
[36]
  GI50: 11.4 µM
  TGI: 24.1 µM
[37]
  GI50: 3.2 µM
  TGI: 9.62 µM
[38]
  GI50: 15.5 µM
  TGI: 44.4 µM
[39]
  GI50: 1850 nM
  TGI: 3.33 µM
[40]
  GI50: 2050 nM
  TGI: 4.13 µM
[41]
  GI50: 1730 nM
  TGI: 3.26 µM
[42]
  GI50: 1540 nM
  TGI: 3.13 µM
[43]
  GI50: 15.1 µM
  TGI: 29.8 µM
[44]
  GI50: 3.72 µM
  TGI: 14 µM
[45]
  GI50: 4.53 µM
  TGI: 14.2 µM
[46]
  GI50: 1860 nM
  TGI: 3.38 µM
[47]
  GI50: 1710 nM
  TGI: 3.77 µM
[48]
  GI50: 1670 nM
  TGI: 3.24 µM
[49]
  GI50: 1670 nM
  TGI: 3.22 µM
[50]
  GI50: 3.35 µM
  TGI: 13.1 µM
[51]
  GI50: 628 nM
  TGI: 10.8 µM
[52]
  GI50: 2260 nM
  TGI: 6.37 µM
[53]
  GI50: 1700 nM
  TGI: 3.09 µM
[54]
  GI50: 1960 nM
  TGI: 4.48 µM
[55]
  GI50: 2240 nM
  TGI: 5.38 µM
[56]
  GI50: 1880 nM
  TGI: 3.61 µM
[57]
  GI50: 1730 nM
  TGI: 3.61 µM
